{"source": "PubChem BioAssay AID624254", "about": "(Broad Institute, 2012)", "note": "Calls of active or inactive are those of the source. No rule for the calls is given here."}
{"assay": "Luciferase light induction in v cholerae bh1651, agonist dose response, confirmatory (AID 624254)", "conditions": "V. cholerae BH1651 luxOD47E, luciferase light induction, 6 h; at 50 µM (top of the series)"}
{"smiles": "C[C@@H]1CN([C@@H](C)CO)C(=O)c2cccc(NC(=O)Nc3ccc4c(c3)OCO4)c2O[C@@H]1CN(C)S(=O)(=O)c1ccccc1", "activation (light increase)": "inactive"}
{"smiles": "C=CCN1C(=O)c2ccc(C(=O)N(CC)CC(=O)Nc3cc(Cl)ccc3C)cc2C1=O", "activation (light increase)": "inactive"}
{"smiles": "OCCN1CCN(CC(O)COc2ccc(Cl)cc2)CC1", "note": "(stereo not given)", "activation (light increase)": "inactive"}
{"smiles": "COc1ccc(-c2nc(N)ncc2Oc2ccccc2Br)c(O)c1", "activation (light increase)": "inactive"}
{"smiles": "CCC(C)NS(=O)(=O)c1ccc(S(=O)(=O)Nc2cc3c(cc2C(C)=O)OCO3)cc1", "note": "(stereo not given)", "activation (light increase)": "inactive"}
{"smiles": "NC(=O)c1cc(Br)cc(C2CCCCC2)c1O", "activation (light increase)": "inactive"}
{"smiles": "CN(C1CCCCC1)S(=O)(=O)CCNC(=O)c1ccccc1", "activation (light increase)": "inactive"}
{"smiles": "CCCCN1C(=O)C(O)(CC(=O)c2ccccn2)c2ccccc21", "note": "(stereo not given)", "activation (light increase)": "inactive"}
{"smiles": "COc1ccc(C(=O)N2CCC(C(=O)c3ccc(F)cc3)CC2)cc1", "activation (light increase)": "inactive"}
{"smiles": "Cc1cccc(C(=O)OCC(=O)NCC(C)C)c1O", "activation (light increase)": "inactive"}
{"smiles": "CCSc1nnc(NC(=O)c2ccc3ccccc3n2)s1", "activation (light increase)": "inactive"}
{"smiles": "CC1CCCN(C(=O)Cn2c(-c3nonc3N)nc3ccccc32)C1", "note": "(stereo not given)", "activation (light increase)": "inactive"}
{"smiles": "O=C(COC(=O)c1ccc(O)cc1)c1ccc2c(c1)OCCO2", "activation (light increase)": "inactive"}
{"smiles": "CCCCCn1c(SCC(=O)OCC)nc2cc(C(=O)N3CCC(C(N)=O)CC3)ccc2c1=O", "activation (light increase)": "inactive"}
{"smiles": "CCOC(=O)C1CCCc2c1[nH]c1c(C(=O)O)cccc21", "note": "(stereo not given)", "activation (light increase)": "inactive"}
{"smiles": "CCCOc1ccc(NS(=O)(=O)c2cn(C)cn2)cc1", "activation (light increase)": "inactive"}
{"smiles": "N#Cc1nc(-c2ccc(OCc3ccc(Cl)cc3)cc2)oc1NCc1cccnc1", "activation (light increase)": "inactive"}
{"smiles": "C=Cn1c(C(=O)O)ccc1-c1cccs1", "activation (light increase)": "inactive"}
{"smiles": "CC(C)(C)OC(=O)NCCCC(CCCNC(=O)OC(C)(C)C)C(=O)O", "activation (light increase)": "inactive"}
{"smiles": "CCCn1nnnc1NCc1ccc(C(C)C)cc1", "activation (light increase)": "inactive"}
{"smiles": "O=C(CNc1cc(S(=O)(=O)N2CCOCC2)ccc1N1CCCC1)Nc1ccc(Cl)cc1", "activation (light increase)": "inactive"}
{"smiles": "CCc1ccc(-c2ccc(C(=O)O)n2C)cc1", "activation (light increase)": "inactive"}
{"smiles": "Cc1noc(C)c1NC(=O)Nc1cccc2c1O[C@H](CN(C)S(=O)(=O)c1cccs1)[C@H](C)CN([C@H](C)CO)C2=O", "activation (light increase)": "inactive"}
{"smiles": "COc1ccc(CCNC(=O)C(=O)NCC2CCCN2S(=O)(=O)c2ccc(OC)cc2)cc1", "note": "(stereo not given)", "activation (light increase)": "inactive"}
{"smiles": "Cc1ccc(NC(=S)NCCc2c[nH]c3ccccc23)cc1", "activation (light increase)": "inactive"}
{"smiles": "Nc1nnc(-c2ccc(Cl)cc2Cl)s1", "activation (light increase)": "inactive"}
{"smiles": "C[C@H](CO)N1C[C@H](C)[C@@H](CN(C)S(=O)(=O)c2ccc(F)cc2)Oc2c(NC(=O)Nc3ccc4c(c3)OCO4)cccc2C1=O", "activation (light increase)": "inactive"}
{"smiles": "CN1CC(=O)N(CC(=O)Nc2ccc3c(c2)CCC3)C1=O", "activation (light increase)": "inactive"}
{"smiles": "CCOc1ccc(CNC(=O)Cn2c(=O)c3cccn3c3ccccc32)cc1", "activation (light increase)": "inactive"}
{"smiles": "COc1ccc(S(=O)(=O)N(C)C[C@H]2Oc3c(NC(=O)Nc4ccc5c(c4)OCO5)cccc3C(=O)N([C@H](C)CO)C[C@@H]2C)cc1", "activation (light increase)": "inactive"}
{"smiles": "Cc1ccc(S(=O)(=O)NCCC(=O)O)cc1", "activation (light increase)": "inactive"}
{"smiles": "CCS(=O)(=O)Nc1ccc(C(=O)OC)cc1", "activation (light increase)": "inactive"}
{"smiles": "CCOc1ccc(S(=O)(=O)N(CCO)CCO)cc1-c1nc2c(C(C)(C)C)nn(C)c2c(=O)[nH]1", "activation (light increase)": "inactive"}
{"smiles": "Cc1ccc(Oc2ccc(S(=O)(=O)N3CCOCC3)cc2C(N)=O)c(-n2nc3ccccc3n2)c1", "activation (light increase)": "inactive"}
{"smiles": "Cc1csc(NC(=O)Cc2nn(C)c(=O)c3ccccc23)n1", "activation (light increase)": "inactive"}
{"smiles": "Cn1cnc(S(=O)(=O)Nc2ccc(OC(C)(C)C)cc2)c1", "activation (light increase)": "inactive"}
{"smiles": "O=C(NCc1ccco1)c1cc2n(n1)C(C(F)(F)F)CC(c1ccc(Cl)c(Cl)c1)N2", "note": "(stereo not given)", "activation (light increase)": "inactive"}
{"smiles": "O=C(Nc1nnc(-c2ccc(Br)cc2)o1)c1cccc(N2C(=O)CCC2=O)c1", "activation (light increase)": "inactive"}
{"smiles": "Cc1cccc(-c2noc(-c3ccccc3C(=O)NCC3CCCO3)n2)c1", "note": "(stereo not given)", "activation (light increase)": "inactive"}
{"smiles": "COc1cccc(NC(=O)C2CC(=O)OC23CCOC(C)(C)C3)c1", "note": "(stereo not given)", "activation (light increase)": "inactive"}
{"smiles": "CCn1c(SCC(=O)Nc2ccc3c(c2)OCCO3)nnc1-c1ccccn1", "activation (light increase)": "inactive"}
{"smiles": "CC(=O)Nc1ccc(S(=O)(=O)NCCC(=O)OCC(=O)c2cc(C)ccc2C)cc1", "activation (light increase)": "inactive"}
{"smiles": "O=S(=O)(Nc1cccc(S(=O)(=O)N2CCCCC2)c1)c1ccccc1F", "activation (light increase)": "inactive"}
{"smiles": "CCCCc1cc2c(cc1NC(=O)CN1CCCCC1)OCCO2", "activation (light increase)": "inactive"}
{"smiles": "Cc1ncc(S(=O)(=O)c2ccccc2)c(-c2ccc(Cl)cc2Cl)n1", "activation (light increase)": "inactive"}
{"smiles": "COc1ccc(-c2ccc(-c3nnc(Cc4ccc(OC)c(OC)c4)o3)cc2)cc1", "activation (light increase)": "inactive"}
{"smiles": "CCOC(=O)c1c(C)[nH]c(C(=O)COC(=O)C2(C)CC2(Cl)Cl)c1C", "note": "(stereo not given)", "activation (light increase)": "inactive"}
{"smiles": "O=C(O)c1cn[nH]c1-n1cnnn1", "activation (light increase)": "inactive"}
{"smiles": "CN(CC(=O)Nc1ccc(OC(F)(F)F)cc1)C(=O)C1CCC1", "activation (light increase)": "inactive"}
{"smiles": "COc1cc(C2N(c3ccccn3)C(=O)C3CCCN32)cc(OC)c1OC", "note": "(stereo not given)", "activation (light increase)": "inactive"}
{"smiles": "COCCNc1nc2c(c(=O)n(Cc3ccc(OC)cc3)c(=O)n2C)n1C", "activation (light increase)": "inactive"}
{"smiles": "CC(=O)c1ccc(S(=O)(=O)Nc2cccc(-c3ccc4nncn4n3)c2)cc1", "activation (light increase)": "inactive"}
{"smiles": "CCOC(=O)N1CCC(NC(=O)C2CCN(C(=O)N3CC(C)Oc4ccc(C)cc43)CC2)CC1", "note": "(stereo not given)", "activation (light increase)": "inactive"}
{"smiles": "COCCNC(=O)CN1CCN(C(c2ccccc2)c2ccccc2)CC1", "activation (light increase)": "inactive"}
{"smiles": "CC(=O)N1CCN(C(=O)c2cc(-c3ccc(Cl)s3)nc3ccccc23)CC1", "activation (light increase)": "inactive"}
{"smiles": "CN(CC(=O)NCCN1CCOCC1)S(=O)(=O)c1ccc(Cl)cc1", "activation (light increase)": "inactive"}
{"smiles": "COc1ccccc1CNC(=O)COC(=O)c1n[nH]c2ccccc12", "activation (light increase)": "inactive"}
{"smiles": "COc1ccc(NC(=O)COc2cccc3c2CCNC3=O)cc1", "activation (light increase)": "inactive"}
{"smiles": "O=C(Nc1ccc2oc(-c3ccc4ccccc4c3)nc2c1)c1cccs1", "activation (light increase)": "inactive"}
{"smiles": "CCc1sc(N(C(=O)Cc2ccccc2)c2cccc(F)c2)nc1-c1ccc(C)cc1", "activation (light increase)": "inactive"}
{"smiles": "CCC(CCC(=O)Nc1cccc(C(=O)O)c1)C(=O)O", "note": "(stereo not given)", "activation (light increase)": "inactive"}
{"smiles": "Cn1cnc(S(=O)(=O)Nc2ccc(Cl)cc2)c1", "activation (light increase)": "inactive"}
{"smiles": "COc1cc2c(c(OC)c1OC)C(c1ccc(C)cc1)CC(=O)O2", "note": "(stereo not given)", "activation (light increase)": "inactive"}
{"smiles": "Cc1cccc(OCC(=O)N(C)CCc2ccccn2)c1", "activation (light increase)": "inactive"}
{"smiles": "O=[N+]([O-])c1ccc(NCCN2CCOCC2)c([N+](=O)[O-])c1", "activation (light increase)": "inactive"}
{"smiles": "COc1ccc(S(=O)(=O)Nc2cccc(S(=O)(=O)N3CCCC3)c2)cc1OC", "activation (light increase)": "inactive"}
{"smiles": "Fc1ccc(NCc2cn3ccccc3n2)cc1", "activation (light increase)": "inactive"}
{"smiles": "C[C@H]1CN([C@@H](C)CO)C(=O)c2cccc(NC(=O)C3CC3)c2O[C@@H]1CN(C)S(=O)(=O)c1cccs1", "activation (light increase)": "inactive"}
{"smiles": "Cc1cc(C(=O)OCC(=O)Nc2c(Cl)cccc2C(F)(F)F)c(C)o1", "activation (light increase)": "inactive"}
{"smiles": "Cc1occc1-c1nnc(SCC(=O)NCc2cccs2)n1-c1ccc(F)cc1", "activation (light increase)": "inactive"}
{"smiles": "O=C(CCNC(=O)c1ccc(Cl)cc1)NCC(c1ccco1)N1CCCCC1", "note": "(stereo not given)", "activation (light increase)": "inactive"}
{"smiles": "Cc1cccc(NC(=O)c2ccc(Oc3ccccc3)cc2)n1", "activation (light increase)": "inactive"}
{"smiles": "CCCC(=O)NC1CCCc2c1cnn2-c1ccc(C)c(C)c1", "note": "(stereo not given)", "activation (light increase)": "inactive"}
{"smiles": "CCN(CC)c1nc(-c2ccccc2)cc(C(F)(F)F)c1C#N", "activation (light increase)": "inactive"}
{"smiles": "CN(C)CC(C)(C)CNC(=O)c1cc(=O)c2ccccc2o1", "activation (light increase)": "inactive"}
{"smiles": "COc1ccc(OC)c(NC(=O)Nc2cccc(Cn3cccn3)c2)c1", "activation (light increase)": "inactive"}
{"smiles": "CCC1Nc2ncnc(N3CCN(c4ccccc4)CC3)c2N(Cc2ccccc2)C1=O", "note": "(stereo not given)", "activation (light increase)": "inactive"}
{"smiles": "CC(C)[C@H](NC(=O)c1ccccc1F)C(=O)OCC(=O)NC1CC1", "activation (light increase)": "inactive"}
{"smiles": "Cn1c(=O)c2c(nc(SCCN3CCOCC3)n2Cc2cccc3ccccc23)n(C)c1=O", "activation (light increase)": "inactive"}
{"smiles": "COc1ccc(S(=O)(=O)N2CCOCC2)cc1NC(=O)CSc1nnc(C2CC2)n1C1CC1", "activation (light increase)": "inactive"}
{"smiles": "Cc1ccc(OCCC(=O)OCC(=O)Nc2ccc3c(c2)OCO3)cc1", "activation (light increase)": "inactive"}
{"smiles": "COc1cc(S(=O)(=O)N(Cc2cccs2)C2CC2)ccc1-n1cnnn1", "activation (light increase)": "inactive"}
{"smiles": "CC(C)(C)c1nc(N2CCN(C(=O)c3ccco3)CC2)c2nnn(Cc3ccccc3)c2n1", "activation (light increase)": "inactive"}
{"smiles": "O=c1c2ccccc2nnn1CSc1nnc(-c2cccnc2)n1-c1ccccc1F", "activation (light increase)": "inactive"}
{"smiles": "Cc1cc2c(ncn2C)c(NS(=O)(=O)c2cc(Cl)ccc2Cl)c1C", "activation (light increase)": "inactive"}
{"smiles": "CC1(NC(=O)C23CC4CC(CC(C4)C2)C3)CCS(=O)(=O)C1", "note": "(stereo not given)", "activation (light increase)": "inactive"}
{"smiles": "CC(=O)Nc1ccc2nc(-c3cccnc3)[nH]c2c1", "activation (light increase)": "inactive"}
{"smiles": "C[C@H](CO)N1C[C@H](C)[C@@H](CN(C)S(=O)(=O)c2ccc(Cl)cc2)Oc2c(NC(=O)Nc3ccc4c(c3)OCO4)cccc2C1=O", "activation (light increase)": "inactive"}
{"smiles": "Cc1cccc(N(CC(N)=O)C2SC(=O)N(c3ccccc3)C2=O)c1", "note": "(stereo not given)", "activation (light increase)": "inactive"}
{"smiles": "COc1ccccc1NC(=O)CN1CCN(c2ccccc2F)CC1", "activation (light increase)": "inactive"}
{"smiles": "CCC(C)NC(=O)Cc1ccc(-c2ccccc2)cc1", "note": "(stereo not given)", "activation (light increase)": "inactive"}
{"smiles": "O=C(COC(=O)C1CCC1)Nc1ccc(Oc2ccccc2)cc1", "activation (light increase)": "inactive"}
{"smiles": "CCC(O)(CCN1CCCCC1)c1ccccc1", "note": "(stereo not given)", "activation (light increase)": "inactive"}
{"smiles": "O=C(Nc1cccc(-c2ccc(N3CCOCC3)nn2)c1)c1ccc([N+](=O)[O-])cc1", "activation (light increase)": "inactive"}
{"smiles": "COC(=O)c1nnn(-c2nonc2N)c1CSc1nc2ccccc2s1", "activation (light increase)": "inactive"}
